Read-outs that look alike come from different tables or passages of the source. Numbered stars: 1 amine (or outer) side, 2 acyl side, 3 side chain; on linkers, the order of the positions; unused ones are H or OH. Bridge positions count the residues as written; N and C are the ends. Square brackets hold non-standard residues; d marks the D form. Peptide text beside a SMILES is read from it. * marks the point of attachment. C20 diacid = O=C(O)CCCCCCCCCCCCCCCCCCC(=O)*; γGlu = O=C(O)[C@H](CCC(=O)[*:2])N[*:1]; NMeI = CC[C@H](C)[C@H](NC)C(=O)O; Sar = CNCC(=O)O
Target: T1, human calcitonin receptor (hCTR2) (Homo sapiens, UniProt P30988)
T1 construct: expressed in transfected cells
T1 sequence (P30988 25-474): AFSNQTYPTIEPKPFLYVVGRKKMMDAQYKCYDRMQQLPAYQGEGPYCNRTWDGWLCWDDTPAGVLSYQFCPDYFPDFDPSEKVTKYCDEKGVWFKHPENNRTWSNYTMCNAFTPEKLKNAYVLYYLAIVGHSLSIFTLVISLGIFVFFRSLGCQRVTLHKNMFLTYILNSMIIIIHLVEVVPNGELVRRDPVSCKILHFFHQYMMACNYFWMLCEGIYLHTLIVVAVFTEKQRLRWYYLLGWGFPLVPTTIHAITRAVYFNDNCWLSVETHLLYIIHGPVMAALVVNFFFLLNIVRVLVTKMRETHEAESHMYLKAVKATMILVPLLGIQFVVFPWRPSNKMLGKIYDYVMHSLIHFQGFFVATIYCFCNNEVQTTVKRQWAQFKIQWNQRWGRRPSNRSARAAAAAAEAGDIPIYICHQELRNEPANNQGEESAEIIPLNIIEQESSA
Experiment: hCTR2 assay: induction of cAMP (AlphaScreen cAMP Assay kit) in COS7 cells expressing hCTR2
Assay type: cell-based
Description: The cell line COS7, originating from African Green Monkey kidney fibroblast cells, was used for establishment of the stable cell lines described below. The COS7 cellular background was used due to it being RAMP naive, and as such it provides the best available system for testing of the monomeric hCTR and different heterodimeric amylin receptor subtypes functionally generated by introduction of the individual RAMPs.
A cell line expressing the human calcitonin receptor (hCTR2) was generated in the COS7 cellular background as stable clones. In brief, hCTR2 (GI: 4502547) was amplified by PCR using primers encoding terminal restriction sites for subcloning. The 5'-end primers additionally encoded a near Kozak consensus sequence to ensure efficient translation. The fidelity of the DNA encoding the receptor was confirmed by DNA sequencing. The PCR products encoding the receptor were subcloned into a mammalian expression vector containing a neomycin (G418) resistance marker. The mammalian expression vector encoding the receptor was transfected into COS7 cells by a standard liposome transfection method. 48 hours post-transfection, cells were seeded for limited dilution cloning and selected with 1 mg/ml G418 in the culture medium. After 3 weeks, surviving colonies of hCTR2-expressing cells were picked, propagated and tested in the amylin efficacy assay as described in Example 3 below. One hCTR2-expressing clone was chosen for compound profiling.
In vitro activity of test peptides at the hCTR2 and hAMYR3 receptors was assessed by measuring the induction of cAMP following stimulation of the receptor by pramlintide or peptides of the invention using the AlphaScreen® cAMP Assay kit from Perkin-Elmer.
Briefly, COS7 cells expressing hCTR2 (see Example 2, above) were seeded at 30-40,000 cells per well in 96-well microtiter plates coated with 0.01 % poly-L-lysine, and grown for 1 day in culture in 100 µl growth medium [DMEM, 10% FCS, Penicillin (100 IU/ml), Streptomycin (100 µg/ml)]. On the day of analysis, growth medium was removed and the cells were washed once with 200 µl Tyrode buffer [Tyrode's Salts (9.6 g/l), 10 mM HEPES, pH 7.4]. Cells were incubated in 100 µl Tyrode buffer containing increasing concentrations of test peptides, 100 µM IBMX and 0.1% casein for 15 min at 37° C. The reaction was stopped by carefully decanting off the compound/buffer medium and replacing it with lysis/detection buffer (80 µl 0.1 % w/v BSA, 5 mM HEPES, 0.3 % v/v Tween-20 in deionized water). After incubation at room temperature for 10 min., the cAMP content of the resulting cell lysate was estimated according to the AlphaScreen® cAMP Assay manufacturer's instructions. EC50 values and relative efficacy values (in %) compared to reference peptide (Pramlintide) were estimated by computer-aided curve fitting using the 4-parameter logistic (4PL) non-linear model.
The in vitro activity results (expressed as EC50 values) for peptides of the invention and for Pramlintide (reference peptide) are summarized in Table 2, below.

Row | SMILES | EC50 [nM] | EC50 (cAMP induction in COS7 cells expressing hCTR2, average of a minimum of 3 determinations, read-out: hCTR2 EC50) [nM]
1 | CC[C@H](C)[C@@H](C(=O)N[C@@H](CC(C)C)C(=O)N[C@@H](CO)C(=O)N[C@@H](CO)C(=O)N[C@H](C(=O)N[C@@H](CC(N)=O)C(=O)N[C@H](C(=O)NCC(=O)N[C@@H](CO)C(=O)N[C@@H](CC(N)=O)C(=O)N[C@H](C(=O)N1CCC[C@H]1C(N)=O)[C@@H](C)O)C(C)C)[C@@H](C)O)N(C)C(=O)[C@H](C)NC(=O)CN(C)C(=O)[C@H](Cc1ccccc1)NC(=O)[C@H](CC(N)=O)NC(=O)[C@H](CC(N)=O)NC(=O)[C@H](CO)NC(=O)[C@H](CO)NC(=O)[C@@H](Cc1c[nH]cn1)NC(=O)[C@H](Cc1c[nH]cn1)NC(=O)[C@H](CC(C)C)NC(=O)[C@H](Cc1ccccc1)NC(=O)[C@H](CCC(=O)O)NC(=O)[C@H](C)NC(=O)[C@H](CC(C)C)NC(=O)[C@H](CCCNC(=N)N)NC(=O)[C@H](CCC(N)=O)NC(=O)[C@@H](NC(=O)[C@H](C)NC(=O)[C@@H]1CSSC[C@H](NC(=O)[C@H](CCCNC(=N)N)NC(=O)CC[C@H](NC(=O)CCCCCCCCCCCCCCCCCCC(=O)O)C(=O)O)C(=O)N[C@@H](CC(N)=O)C(=O)N[C@@H]([C@@H](C)O)C(=O)N[C@@H](C)C(=O)N[C@@H]([C@@H](C)O)C(=O)N1)[C@@H](C)O [Compound 12, [19CD]-isoGlu-RC()NTATC()ATQRLAEFLH-DHis-SSNNF-Gly(Me)-A-Ile(Me)-LSSTNVGSNTP-NH2] ({C20 diacid-γGlu}-RCNTATCATQRLAEFLH[dH]SSNNF[Sar]A[NMeI]LSSTNVGSNTP-NH2; disulfide 2-7) | 0.088 | 
2 | CC[C@H](C)[C@@H](C(=O)N[C@@H](CC(C)C)C(=O)N[C@@H](CO)C(=O)N[C@@H](CO)C(=O)N[C@H](C(=O)N[C@@H](CC(N)=O)C(=O)N[C@H](C(=O)NCC(=O)N[C@@H](CO)C(=O)N[C@@H](CC(N)=O)C(=O)N[C@H](C(=O)N1CCC[C@H]1C(N)=O)[C@@H](C)O)C(C)C)[C@@H](C)O)N(C)C(=O)[C@H](C)NC(=O)CN(C)C(=O)[C@@H](Cc1ccccc1)NC(=O)[C@H](CC(N)=O)NC(=O)[C@H](CC(N)=O)NC(=O)[C@H](CO)NC(=O)[C@H](CO)NC(=O)[C@H](Cc1c[nH]cn1)NC(=O)[C@H](Cc1c[nH]cn1)NC(=O)[C@H](CC(C)C)NC(=O)[C@H](Cc1ccccc1)NC(=O)[C@H](CCC(=O)O)NC(=O)[C@H](C)NC(=O)[C@H](CC(C)C)NC(=O)[C@H](CCCNC(=N)N)NC(=O)[C@H](CCC(N)=O)NC(=O)[C@@H](NC(=O)[C@H](C)NC(=O)[C@@H]1CSSC[C@H](NC(=O)[C@H](CCCNC(=N)N)NC(=O)CC[C@H](NC(=O)CCCCCCCCCCCCCCCCCCC(=O)O)C(=O)O)C(=O)N[C@@H](CC(N)=O)C(=O)N[C@@H]([C@@H](C)O)C(=O)N[C@@H](C)C(=O)N[C@@H]([C@@H](C)O)C(=O)N1)[C@@H](C)O [Compound 13, [19CD]-isoGlu-RC()NTATC()ATQRLAEFLHHSSNN-DPhe-Gly(Me)-A-Ile(Me)-LSSTNVGSNTP-NH2] ({C20 diacid-γGlu}-RCNTATCATQRLAEFLHHSSNN[dF][Sar]A[NMeI]LSSTNVGSNTP-NH2; disulfide 2-7) | 0.067 | 
3 | CC[C@H](C)[C@@H](C(=O)N[C@@H](CC(C)C)C(=O)N[C@@H](CO)C(=O)N[C@@H](CO)C(=O)N[C@H](C(=O)N[C@@H](CC(N)=O)C(=O)N[C@H](C(=O)NCC(=O)N[C@@H](CO)C(=O)N[C@@H](CC(N)=O)C(=O)N[C@H](C(=O)N1CCC[C@H]1C(N)=O)[C@@H](C)O)C(C)C)[C@@H](C)O)N(C)C(=O)[C@@H](C)NC(=O)CN(C)C(=O)[C@H](Cc1ccccc1)NC(=O)[C@H](CC(N)=O)NC(=O)[C@H](CC(N)=O)NC(=O)[C@H](CO)NC(=O)[C@H](CO)NC(=O)[C@H](Cc1c[nH]cn1)NC(=O)[C@H](Cc1c[nH]cn1)NC(=O)[C@H](CC(C)C)NC(=O)[C@H](Cc1ccccc1)NC(=O)[C@H](CCC(=O)O)NC(=O)[C@H](C)NC(=O)[C@H](CC(C)C)NC(=O)[C@H](CCCNC(=N)N)NC(=O)[C@H](CCC(N)=O)NC(=O)[C@@H](NC(=O)[C@H](C)NC(=O)[C@@H]1CSSC[C@H](NC(=O)[C@H](CCCNC(=N)N)NC(=O)CC[C@H](NC(=O)CCCCCCCCCCCCCCCCCCC(=O)O)C(=O)O)C(=O)N[C@@H](CC(N)=O)C(=O)N[C@@H]([C@@H](C)O)C(=O)N[C@@H](C)C(=O)N[C@@H]([C@@H](C)O)C(=O)N1)[C@@H](C)O [Compound 14, [19CD]-isoGlu-RC()NTATC()ATQRLAEFLHHSSNNF-Gly(Me)-DAla-Ile(Me)-LSSTNVGSNTP-NH2] ({C20 diacid-γGlu}-RCNTATCATQRLAEFLHHSSNNF[Sar][dA][NMeI]LSSTNVGSNTP-NH2; disulfide 2-7) | 0.21 | 
4 | CC[C@H](C)[C@@H](C(=O)N[C@H](CC(C)C)C(=O)N[C@@H](CO)C(=O)N[C@@H](CO)C(=O)N[C@H](C(=O)N[C@@H](CC(N)=O)C(=O)N[C@H](C(=O)NCC(=O)N[C@@H](CO)C(=O)N[C@@H](CC(N)=O)C(=O)N[C@H](C(=O)N1CCC[C@H]1C(N)=O)[C@@H](C)O)C(C)C)[C@@H](C)O)N(C)C(=O)[C@H](C)NC(=O)CN(C)C(=O)[C@H](Cc1ccccc1)NC(=O)[C@H](CC(N)=O)NC(=O)[C@H](CC(N)=O)NC(=O)[C@H](CO)NC(=O)[C@H](CO)NC(=O)[C@H](Cc1c[nH]cn1)NC(=O)[C@H](Cc1c[nH]cn1)NC(=O)[C@H](CC(C)C)NC(=O)[C@H](Cc1ccccc1)NC(=O)[C@H](CCC(=O)O)NC(=O)[C@H](C)NC(=O)[C@H](CC(C)C)NC(=O)[C@H](CCCNC(=N)N)NC(=O)[C@H](CCC(N)=O)NC(=O)[C@@H](NC(=O)[C@H](C)NC(=O)[C@@H]1CSSC[C@H](NC(=O)[C@H](CCCNC(=N)N)NC(=O)CC[C@H](NC(=O)CCCCCCCCCCCCCCCCCCC(=O)O)C(=O)O)C(=O)N[C@@H](CC(N)=O)C(=O)N[C@@H]([C@@H](C)O)C(=O)N[C@@H](C)C(=O)N[C@@H]([C@@H](C)O)C(=O)N1)[C@@H](C)O [Compound 15, [19CD]-isoGlu-RC()NTA TC()ATQRLAEFLHHSSNNF-Gly(Me)-A-Ile(Me)-DLeu-SSTNVGSNTP-NH2] ({C20 diacid-γGlu}-RCNTATCATQRLAEFLHHSSNNF[Sar]A[NMeI][dL]SSTNVGSNTP-NH2; disulfide 2-7) | 0.16 | 
5 | CC[C@H](C)[C@@H](C(=O)N[C@@H](CC(C)C)C(=O)N[C@@H](CO)C(=O)N[C@@H](CO)C(=O)N[C@H](C(=O)N[C@@H](CC(N)=O)C(=O)N[C@H](C(=O)NCC(=O)N[C@@H](CO)C(=O)N[C@@H](CC(N)=O)C(=O)N[C@H](C(=O)N1CCC[C@H]1C(N)=O)[C@@H](C)O)C(C)C)[C@@H](C)O)N(C)C(=O)[C@H](C)NC(=O)[C@H](C)NC(=O)[C@H](Cc1ccccc1)NC(=O)[C@H](CC(N)=O)NC(=O)[C@H](CC(N)=O)NC(=O)[C@H](CO)NC(=O)[C@H](CO)NC(=O)[C@H](Cc1c[nH]cn1)NC(=O)[C@H](Cc1c[nH]cn1)NC(=O)[C@H](CC(C)C)NC(=O)[C@H](Cc1ccccc1)NC(=O)[C@H](CCC(=O)O)NC(=O)[C@H](C)NC(=O)[C@H](CC(C)C)NC(=O)[C@H](CCCNC(=N)N)NC(=O)[C@H](CCC(N)=O)NC(=O)[C@@H](NC(=O)[C@H](C)NC(=O)[C@@H]1CSSC[C@H](NC(=O)[C@H](CCCNC(=N)N)NC(=O)CC[C@H](NC(=O)CCCCCCCCCCCCCCCCCCC(=O)O)C(=O)O)C(=O)N[C@@H](CC(N)=O)C(=O)N[C@@H]([C@@H](C)O)C(=O)N[C@@H](C)C(=O)N[C@@H]([C@@H](C)O)C(=O)N1)[C@@H](C)O [Compound 16, [19CD]-isoGlu-RC()NTATC()ATQRLAEFLHHSSNNFAA-Ile(Me)-LSSTNVGSNTP-NH2] ({C20 diacid-γGlu}-RCNTATCATQRLAEFLHHSSNNFAA[NMeI]LSSTNVGSNTP-NH2; disulfide 2-7) |  | 0.076

Reference: patent EP3046573B1, “AMYLIN ANALOGUES” (Zealand Pharma A/S, priority 2013, dated 2015)
